IC50 data for one compound are collected here from patent US6515001B2, “IL-8 receptor ligands-drugs for inflammatory and autoimmune diseases” (Chemokine Therapeutic Corporation, priority 2001, dated 2003).

Assay [1] concerns the target IL-8 receptors (CXCR-1 and CXCR-2). As to the kind of experiment: Inhibition of binding of I125 labeled IL-8 to IL-8 receptors. The note with it: I125 labeled IL-8 as competitor; read-out: IC50, inhibition of binding of IL-8 to CXCR-1 and/or CXCR-2. As to the method:
This example discloses the ability of compounds of the invention, such as benzopyrone derivatives, such as CTCM192 (1), to inhibit binding of IL-8 to IL-8 receptors (CXCR-1 and CXCR-2). The binding studies were conducted using I^125 labeled IL-8 as competitor.

Assay [2] has as its system IL-8-induced [Ca2+]i mobilization in THP1 cells. As to the kind of experiment: Inhibition of IL-8-induced intracellular [Ca2+]i mobilization in THP1 cells. Format: cell-based. Particulars: Homo sapiens, THP-1; Fura-2,AM loaded THP1 cells, incubated 60 min prior to induction by 12 nM IL-8. As to the method: A rapid, transient rise in the free cytosolic Ca^2+ concentration ([Ca^2+])i) is one of the events associated with the Chemokine mediated induction of the associated receptors and is assumed to be involved in many of the subsequent cellular reactions. Both Ca^2+ release from intracellular stores and Ca^2+ influx from the extracellular space contribute to the rise in [Ca^2+]i. […] Fura-2,AM loaded THP1 cells were incubated with CTCM192 for 60 min prior to induction of [Ca^2+]i mobilization by 12 nM IL-8. Results illustrate the effect of CTCM192 (1) on IL-8-induced Ca^2+ mobilization.
In accordance with this aspect of the invention, the benzopyrone derivative, Geetokine, such as compound 1 or corresponding salts may be used for the treatment of a wide range of inflammatory diseases such as gout, arthritis osteoarthritis, rheumatoid arthritis, and ARDS.

Consider `Cc1csc(-c2coc3cc(OC(=O)C(Cc4ccccc4)NC(=O)OCc4ccccc4)cc(C)c3c2=O)n1` (centres unmarked) [Compound 1, [7-[5-methylbenzopyrone-5′(3′-methyl)-thiazole]-phenylalanine-benyl ester]], for which the IC50 in assay [1] was 45 µM; in assay [2], 0.34 µM.
